Target: T1, β-glucocerebrosidase (Homo sapiens, UniProt P04062, L483P)
T1 construct: host or cells: human Gaucher disease patient fibroblasts GM08760A
T1 sequence (P04062 40-536 L483P): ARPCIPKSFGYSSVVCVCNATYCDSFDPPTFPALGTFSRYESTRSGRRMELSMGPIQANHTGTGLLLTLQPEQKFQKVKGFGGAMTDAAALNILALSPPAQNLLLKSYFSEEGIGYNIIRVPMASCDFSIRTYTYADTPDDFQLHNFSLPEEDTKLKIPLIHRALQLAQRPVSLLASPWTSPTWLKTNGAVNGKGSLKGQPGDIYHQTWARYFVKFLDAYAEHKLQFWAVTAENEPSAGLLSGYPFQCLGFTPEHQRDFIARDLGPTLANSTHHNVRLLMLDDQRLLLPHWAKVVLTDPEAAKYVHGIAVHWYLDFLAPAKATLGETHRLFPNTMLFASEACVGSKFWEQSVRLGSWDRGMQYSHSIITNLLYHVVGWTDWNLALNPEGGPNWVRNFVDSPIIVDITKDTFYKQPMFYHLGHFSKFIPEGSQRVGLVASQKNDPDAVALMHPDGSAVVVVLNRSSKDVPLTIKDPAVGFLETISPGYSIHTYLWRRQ
Assay: Enhancement of β-glucocerebrosidase activity measured in Gaucher disease fibroblasts (4-MU-β-D-glucopyranoside substrate, intact cells)
Format: cell-based
Design: key: Increase in comparison with non-treated of >2.0 fold is shown as A; Increase in comparison with non-treated of >1.7-2.0 fold is shown as B; Increase in comparison with non-treated of 1.2-1.7 fold is shown as C; D means that no increase compared with non-treated cells was detected in this method
Details: GBA fibroblasts bearing L444P (GM08760A, homozygous p.L444P); compound at concentrations between 6 and 50 μM; 4 days incubation
Method: Human fibroblasts from a patient with Gaucher disease homozygous for p.L444P mutation (GM08760A) were purchased from Coriell Institute for Medical Research (Camden, NJ, USA).
Fibroblasts were seeded at 5×10^3 cells per well in 96-well cell culture plates (Corning, NY, USA) in Dulbecco's Modified Eagle's Media (DMEM) supplemented with 10% of fetal bovine serum (FBS), 1% penicillin/streptomycin (P/S) (Thermo Fisher Scientific, Waltham, MA, USA) and grown at 37° C., 5% CO2 overnight for cell attachment. Subsequently, cells were incubated in the absence or presence of the compounds at the desired concentration for 4 days. After incubation, cells were washed twice with phosphate-buffered saline (PBS) and enzyme activity assay was performed.
β-glucocerebrosidase activity in intact cultured cells was measured by using 4-methylumbelliferyl-β-D-glucopyranoside substrate (Apollo Scientific, UK). Briefly, cells were incubated with 4-MU-β-D-glucopyranoside in 0.1 M acetate buffer pH=4 at 37° C. for 1 hour. The reaction was stopped by adding 200 μL at 100 mM glycine-NaOH pH=10.7. The liberated 4-MU was measured on a GloMax Discover plate reader (Promega, Madison, WI, USA) with and excitation at 340 nm and emission at 460 nm. Enzyme activities were expressed in treated cells as X-fold increase in comparison with non-treated cells (X=1 represents no enhancement).
The capacity of the compounds of the disclosure to produce an increase in enzyme activity in GBA fibroblasts bearing L444P at concentrations between 6 and 50 μM is denoted as follows: • Increase in comparison with non-treated of >2.0 fold is shown as A • Increase in comparison with non-treated of >1.7-2.0 fold is shown as B • Increase in comparison with non-treated of 1.2-1.7 fold is shown as C • D means that no increase compared with non-treated cells was detected in this method • ND means “not determined”

Row | SMILES | Range: increase in enzyme activity in comparison with non-treated cells (Enzyme activity assay for exemplified compounds)
1 | Nc1cc(C(=O)N2CCN(c3ccccc3)CC2)nc(Nc2ccccc2O)n1 [Example 1, (6-Amino-2-((2-hydroxyphenyl)amino)pyrimidin-4-yl)(4-phenylpiperazin-1-yl)methanone] | C (Increase in comparison with non-treated of 1.2-1.7 fold is shown as C)
2 | COc1cccc(Nc2nc(N)cc(C(=O)N3CCN(c4ccccc4)CC3)n2)c1 [Example 2, (6-Amino-2-((3-methoxyphenyl)amino)pyrimidin-4-yl)(4-phenylpiperazin-1-yl)methanone] | C (Increase in comparison with non-treated of 1.2-1.7 fold is shown as C)
3 | Cc1ccc(Nc2nc(N)cc(C(=O)N3CCN(c4ccccc4)CC3)n2)cc1 [Example 3, (6-Amino-2-(p-tolylamino)pyrimidin-4-yl)(4-phenylpiperazin-1-yl)methanone] | C (Increase in comparison with non-treated of 1.2-1.7 fold is shown as C)
4 | CN(Cc1ccccc1)C(=O)c1cc(N)nc(Nc2ccccc2O)n1 [Example 4, 6-Amino-N-benzyl-2-((2-hydroxyphenyl)amino)-N-methylpyrimidine-4-carboxamide] | C (Increase in comparison with non-treated of 1.2-1.7 fold is shown as C)
5 | CN(C(=O)c1cc(N)nc(Nc2ccccc2O)n1)c1ccccc1 [Example 5, 6-Amino-2-((2-hydroxyphenyl)amino)-N-methyl-N-phenylpyrimidine-4-carboxamide] | C (Increase in comparison with non-treated of 1.2-1.7 fold is shown as C)
6 | Cc1ccc(Nc2nc(N)cc(C(=O)N(C)c3ccccc3)n2)cc1 [Example 6, 6-Amino-N-methyl-N-phenyl-2-(p-tolylamino)pyrimidine-4-carboxamide] | D
7 | COc1cccc(Nc2nc(N)cc(C(=O)N(C)c3ccccc3)n2)c1 [Example 7, 6-Amino-2-((3-methoxyphenyl)amino)-N-methyl-N-phenylpyrimidine-4-carboxamide] | D
8 | Nc1cc(C(=O)N2Cc3ccccc3C2)nc(Nc2ccccc2O)n1 [Example 8, (6-Amino-2-((2-hydroxyphenyl)amino)pyrimidin-4-yl)(isoindolin-2-yl)methanone] | C (Increase in comparison with non-treated of 1.2-1.7 fold is shown as C)
9 | CN(C(=O)c1cc(N)nc(Nc2ccccc2O)n1)C1Cc2ccccc2C1 [Example 10, 6-Amino-N-(2,3-dihydro-1H-inden-2-yl)-2-((2-hydroxyphenyl)amino)-N-methylpyrimidine-4-carboxamide] | C (Increase in comparison with non-treated of 1.2-1.7 fold is shown as C)
10 | Nc1cc(C(=O)Nc2ccccc2)nc(Nc2ccccc2O)n1 [Example 11, 6-Amino-2-((2-hydroxyphenyl)amino)-N-phenylpyrimidine-4-carboxamide] | B (Increase in comparison with non-treated of >1.7-2.0 fold is shown as B)
11 | Nc1cc(C(=O)NC2CCc3ccccc3C2)nc(Nc2ccccc2O)n1 (stereo not drawn) [Example 12, 6-Amino-2-((2-hydroxyphenyl)amino)-N-(1,2,3,4-tetrahydronaphthalen-2-yl)pyrimidine-4-carboxamide] | B (Increase in comparison with non-treated of >1.7-2.0 fold is shown as B)
12 | Nc1cc(C(=O)NC2Cc3ccccc3C2)nc(Nc2ccccc2O)n1 [Example 13, 6-Amino-N-(2,3-dihydro-1H-inden-2-yl)-2-((2-hydroxyphenyl)amino)pyrimidine-4-carboxamide] | C (Increase in comparison with non-treated of 1.2-1.7 fold is shown as C)
13 | Nc1cc(C(=O)N2CCN(c3ccccc3)CC2)nc(N[C@H]2CCCC[C@@H]2O)n1 [Example 14, (6-Amino-2-(((1S,2S)-2-hydroxycyclohexyl)amino)pyrimidin-4-yl)(4-phenylpiperazin-1-yl)methanone] | D
14 | CN(Cc1ccccc1)C(=O)c1cc(N)nc(N[C@H]2CCCC[C@@H]2O)n1 [Example 15, 6-Amino-N-benzyl-2-(((1S,2S)-2-hydroxycyclohexyl)amino)-N-methylpyrimidine-4-carboxamide] | D
15 | Nc1nc(Nc2cccc(Br)c2)nc(C(=O)N2CCN(c3ccccc3)CC2)n1 [Example 16, (4-Amino-6-((3-bromophenyl)amino)-1,3,5-triazin-2-yl)(4-phenylpiperazin-1-yl)methanone] | C (Increase in comparison with non-treated of 1.2-1.7 fold is shown as C)
16 | CN(Cc1ccccc1)C(=O)c1nc(N)nc(Nc2cccc(Br)c2)n1 [Example 17, 4-Amino-N-benzyl-6-((3-bromophenyl)amino)-N-methyl-1,3,5-triazine-2-carboxamide] | D
17 | CN(C(=O)c1nc(N)nc(Nc2cccc(Br)c2)n1)c1ccccc1 [Example 18, 4-Amino-6-((3-bromophenyl)amino)-N-methyl-N-phenyl-1,3,5-triazine-2-carboxamide] | D
18 | Nc1nc(Nc2cccc(Br)c2)nc(C(=O)NC2CCc3ccccc3C2)n1 (stereo not drawn) [Example 19, 4-Amino-6-((3-bromophenyl)amino)-N-(1,2,3,4-tetrahydronaphthalen-2-yl)-1,3,5-triazine-2-carboxamide] | C (Increase in comparison with non-treated of 1.2-1.7 fold is shown as C)
19 | COc1ccccc1Nc1nc(N)nc(C(=O)NC2CCc3ccccc3C2)n1 (stereo not drawn) [Example 20, 4-Amino-6-((2-methoxyphenyl)amino)-N-(1,2,3,4-tetrahydronaphthalen-2-yl)-1,3,5-triazine-2-carboxamide] | C (Increase in comparison with non-treated of 1.2-1.7 fold is shown as C)
20 | Cc1ccc(Nc2nc(N)cc(C(=O)N(C)Cc3ccccc3)n2)cc1 [Example 21, 6-Amino-N-benzyl-N-methyl-2-(p-tolylamino)pyrimidine-4-carboxamide] | C (Increase in comparison with non-treated of 1.2-1.7 fold is shown as C)
21 | Cc1ccc(Nc2nc(N)cc(C(=O)NC3CCc4ccccc4C3)n2)cc1 (stereo not drawn) [Example 22, 6-Amino-N-(1,2,3,4-tetrahydronaphthalen-2-yl)-2-(p-tolylamino)pyrimidine-4-carboxamide] | A (Increase in comparison with non-treated of >2.0 fold is shown as A)
22 | COc1cccc(Nc2nc(N)nc3c2CCN(Cc2ccccc2)C3)c1 [Example 23, 7-Benzyl-N4-(3-methoxyphenyl)-5,6,7,8-tetrahydropyrido[3,4-d]pyrimidine-2,4-diamine] | C (Increase in comparison with non-treated of 1.2-1.7 fold is shown as C)
23 | COc1ccccc1Nc1nc(N)nc2c1CCN(Cc1ccccc1)C2 [Example 24, 7-Benzyl-N4-(2-methoxyphenyl)-5,6,7,8-tetrahydropyrido[3,4-d]pyrimidine-2,4-diamine] | C (Increase in comparison with non-treated of 1.2-1.7 fold is shown as C)
24 | Nc1nc2c(c(Nc3ccccc3O)n1)CCN(Cc1ccccc1)C2 [Example 25, 2-((2-Amino-7-benzyl-5,6,7,8-tetrahydropyrido[3,4-d]pyrimidin-4-yl)amino)phenol] | B (Increase in comparison with non-treated of >1.7-2.0 fold is shown as B)

From patent publication US12661342B2, “Heteroaryl compounds and therapeutic uses thereof in conditions associated with the alteration of the activity of beta-glucocerebrosidase” (GT GAIN THERAPEUTICS SA, priority 2019, dated 2026)
